Experimental findings from PubChem BioAssay (NCI) are described below.

Holding throughout (assay): NCI-60 cell line screen, 48 h
Assay [1] concerns NCI-H460 lung.
In assay [2] the test system is MCF7 breast.
In assay [3] the test system is SF-295 CNS.
In assay [4] the test system is SF-539 CNS.
In assay [5] the test system is BT-549 breast.
In assay [6] the test system is OVCAR-8 ovarian.
Assay [7] relates to NCI-H226 lung.
The test system of assay [8] is NCI-H522 lung.
In assay [9] the test system is HCT-116 colon.
The test system of assay [10] is MALME-3M melanoma.

Molecules are shown by their SMILES. Several values for one entry are separate records, joined by “and”; a condition that tells them apart may be missing. Identical values can stand only once.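 Cells were grown in 96-well plates and exposed to each compound for 48 hours at five concentrations; endpoints were interpolated linearly between bracketing concentrations, or set to the highest concentration if not reached. GI50 marks 50% less growth. Definition used: TGI = concentration required for complete inhibition of growth.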

In the case of `Nc1nn(C(=O)Nc2ccc(Cc3ccccc3)cc2)c2ccc(Cl)cc12`, the GI50 in assay [1] is 0.0658 µM; in assay [2] it was 0.422 µM; in assay [3], 0.122 µM; in assay [4] it was 1.29 µM; in [5], 12.4 µM; in assay [6] it was 14.8 µM. Moreover, the GI50 in assay [7] was 13.5 µM; in assay [8], 7.96 µM; in assay [9] it was 0.354 µM; in [10], 12 µM. The TGI in assay [1] is 15.3 µM; in [2], 18 µM; in assay [3], 19.9 µM; in [4] it was 7.66 µM; in assay [5], > 66.3 µM; in [6] it was > 100 µM. Further, the TGI in [7] is > 81.7 µM; in assay [8], > 100 µM; in [9], 24.2 µM; in assay [10] it was > 74 µM.

On to `O=c1oc2c(Br)c(O)c(Br)cc2c2ccccc12`, for which the TGI in assay [1] is 57 µM; in assay [2], 48.7 µM; in assay [3], > 100 µM; in assay [4], 63.3 µM; in [5], 75.3 µM; in assay [6], > 100 µM. Moreover, the TGI in [7] came to 80.5 µM; in [8], 51.3 µM; in assay [9], 92.6 µM; in [10], 64.8 µM.

For `COc1ccc(Nc2nc(NCc3ccccc3)c3ccccc3n2)cc1`, the GI50 was 3.34 µM in assay [1]; 1.81 µM in assay [2]; 4.78 µM in assay [3]; 9.52 µM in assay [4]; 4.57 µM in assay [5]; 2.17 µM in assay [6]. The GI50 in assay [7] was 11.5 µM; in [8] it was 3.66 µM; in assay [10], 1.92 µM. For the same compound, the TGI in assay [1] stood at 12.6 µM; in assay [2], 3.63 µM; in [3], 23.4 µM; in assay [4], 23.9 µM; in [5], 18.2 µM; in assay [6] it was 5.15 µM. Further, the results for the TGI in assay [7], in [8] and in assay [10] were 37.1 µM, 16.1 µM and 3.69 µM, respectively.

As for `O=C1C(CN(Cc2ccccc2)Cc2ccccc2)CCCC1CN(Cc1ccccc1)Cc1ccccc1` (stereo not drawn), the TGI in assay [1] is > 100 µM; in assay [2], > 100 µM; in assay [3] it was > 100 µM; in [4], 33.1 µM and > 100 µM; in assay [5] it was > 100 µM; in [6], 43.1 µM and > 100 µM. Besides, the TGI in assay [7] is > 100 µM; in [9], 21.5 µM and > 100 µM; in [10], 14.3 µM and > 83 µM. The GI50 is 20.3 µM and > 100 µM in [2]; 17.2 µM and 50.5 µM in assay [4]; 22.9 µM and > 95.5 µM in assay [6]; 14.6 µM and 70.3 µM in [9]; 8.03 µM and 36.3 µM in [10].

For the compound `O=C(O)c1ccc([N+](=O)[O-])c(P(=O)(O)O)c1`, the TGI in assay [1], in assay [2], in [3], in [4], in assay [5] and in [6] was > 100 µM throughout. The TGI in assay [7] and in [9] was > 100 µM each time.

Regarding `NC(=O)Cc1ccccc1Oc1nccc(-c2c(-c3ccc(F)cc3)ncn2C2CCNCC2)n1`, the GI50 in [1], in assay [2], in [3], in assay [4], in assay [5] and in assay [6] was > 25 µM in each case. For the same compound, the GI50 in [7], in assay [8], in assay [9] and in assay [10] was > 25 µM throughout. In addition, the TGI in [1], in assay [2], in assay [3], in assay [4], in assay [5] and in assay [6] was > 25 µM each time. Also, the TGI in assay [7], in [8], in assay [9] and in [10] was > 25 µM each time.

For the compound `COC(=O)C1=C(C(=O)Nc2cccnc2)C2OC1(C(Cc1ccccc1)Oc1ccccc1)C1OC21` (stereo not drawn), the GI50 in assay [1] was 16.4 µM; in assay [2] it was 1.92 µM; in assay [3], 14.6 µM; in assay [4], 7.04 µM; in [5], 3.43 µM; in assay [6], 7.94 µM. Also, the GI50 was 1.92 µM in assay [7], 1.37 µM in assay [8], 2.01 µM in assay [9] and 1.6 µM in assay [10]. Moreover, the TGI came out at 34.1 µM in assay [1]; 5.33 µM in assay [2]; 28.6 µM in [3]; 19.8 µM in [4]; 12.8 µM in [5]; 22.8 µM in assay [6]. In addition, the TGI in assay [7] came to 4.12 µM; in [8] it was 2.95 µM; in assay [9], 4.23 µM; in [10], 3.31 µM.

On to `Cc1cc(N2CCOCC2)nc(N(CCNc2ccnc3cc(Cl)ccc23)Cc2ccco2)n1`, for which the GI50 was 3.72 µM in assay [1]; 3.15 µM in assay [2]; 1.68 µM in [3]; 1.95 µM in [4]; 2.8 µM in assay [5]; 3.84 µM in assay [6]. Moreover, the GI50 in [7] is 3.78 µM; in assay [8], 1.84 µM; in assay [10], 3.41 µM. The TGI is 23.9 µM in assay [1]; 18.9 µM in assay [2]; 3.64 µM in assay [3]; 4.41 µM in [4]; 8.69 µM in assay [5]; > 100 µM in [6]. In addition, the TGI in assay [7] came out at 25.5 µM; in assay [8], 4.75 µM; in [10], 10.3 µM.
